The nature of series [1]: influence upon the lethal effect of MTX. In kind it is in vivo, mice. The conditions noted are these: MTX 22 mg/kg i.p.; composition 0.2 ml i.p. daily for eight days. On the procedure: 2) The mice were divided into two groups and inoculated the tumor cells according to the method above. […] On the 4th day of the administration, the mice were inoculated tumor cell and intraperitoneally injected 22 mg/kg aqueous solution of MTX after 6 hours of inoculation. Within 10 days after MTX injection, the death rate of animals was observed and the survival rates of the two groups of animals were compared.

The subject of series [2] is experimental acute myocardial ischemia of dogs. Description: experimental acute myocardial ischemia and myocardial infarction of anesthetized dogs (coronary artery ligature). In kind it is in vivo. The method, then:
The experimental medicaments were prepared with physiological saline to the same volume (50 ml), and injected through femoral vein at a speed of 5 ml/min with the computer minim syringe pump (Type AJ-5803, Shanghai).
The animals were anaesthetized with pentobarbital sodium (30 mg/kg, i.v), and connected with an electric respirator after tracheal intubation. The chest was opened in the position of the 4th left rib to expose the heart. The pericardium was cut out to make a pericardial bed. The laevorotatory branch of coronary artery was separated and a probe of an electromagnetic flowmeter (Type MF-1100) was placed in to measure the blood flow of coronary artery. The middle section of anterior descending branch of coronary artery was separated and a thread was put through for ligature to make a model of experimental acute myocardium myocardial ischemia. A multipoint fixed epicardium electrode was sewed up and connected with a multirunning physiological recorder (Type RM-6100, Japan Photoelectricity) to display and record the electrocardiogram of epicardium^<1>. The coronary artery was ligated for 15 minutes and recorded as a control value before medicaments administration. The experimental medicaments or physiological saline was injected through the femoral vein. At […] 15, 30, 45, 60, 90, 120, and 180 minutes after medicament administration, 30 measuring points of the epicardium electrocardiogram were recorded. The rising S-T section that is more than 2 mv was taken as a judgment standard to calculate the degree of myocardial ischemia (total mv number of the rising S-T section Σ-ST) and the range of myocardial ischemia (total point number of the rising S-T section N-ST). After intubation through the […] into the coronary vein sinus, the blood oxygen content of coronary vein was measured by a blood oxygen instrument (Type AVL912, Swiss) while the blood samples were taken before ischemia, ischemia 15 min (before administration), at 15, 30, 60, 120, and 180 minutes after medicament administration. Then the animal was intubated into the carotid to measure the blood oxygen content of artery. It was calculated together with the blood flow of coronary artery to measure the myocardial oxygen consumption:
Myocardial oxygen consumption=(blood oxygen content of artery−blood oxygen content of coronary vein)×blood flow of coronary artery/100.
The blood samples were taken at the above-mentioned time points, and then serum creatine phosphate kinase (CK) and lactic dehydrogenase (LDH) were measured with a full-automatic biochemical analyzer (Type RA-1000, USA). And ET, TXB2 and 6-Keto-PGF1 were measured with the Radioimmuno-method and with a full-automatic γ counter (Type FT-630G, Beijing).
When recording was finished at 180 minutes after medicament administration, the heart was taken out immediately, washed with physiological saline and weighed as a whole. Under the ligature line of the heart, the ventricle was cut evenly into 5 pieces parallel to the coronary sulcus. Then the pieces were placed in the N-BT solution and stained at the room temperature for 15 minutes. The infarcted area (N-BT non-stained area) and the non-infarcted area (N-BT stained area) on the lateral sides of each piece of myocardium were measured with a Multimedia Color Pathological Image Analyzing System (Type MPIAS-500, Beijing) The area of each piece of myocardium, the total area of ventricle and the area of the infarcted section were calculated. The percentage of the infarcted area over the ventricle and that over total heart were calculated.
The experimental result was processed statistically and its significance was tested with t-Test.

Series [3] has as its system myocardial ischemia reperfusion injury of rats. Kind of series: myocardial infarction caused by ischemia reperfusion. In kind it is in vivo. The settings on record: 1.0 mg/kg. The method, then: The medicaments were diluted to desired concentration with physiological saline. The volume of administered medicament was 4 ml/kg. And the medicaments were given through the left femoral vein.
The animals were anaesthetized by pentobarbital sodium (45 mg/kg) through abdominal cavity and fixed in backstroke position. […] The tracheas were cut open, the trachea cannulas were inserted, and tracheas were connected with a respirometer (Type SC-3, Shanghai) for artificial respiration (32/min, with a respiration ratio of 1:3). The 3rd-5th ribs were cut off after opening the chest, and the pericardiums were opened to expose the heart. A suture (suture No. 0) was put through the root of left anterior descending branch of coronary artery for ligature. After the suture being put through stably for 10 minutes, a plastic concave pipe was placed parallel with the blood vessel, which was then ligated (eliminating the ones without changes of ST and T-wave). The experimental medicaments were administered. After 40 minutes, the ligature suture was cut off along the groove to trigger the reperfusion of the anterior descending branch. The chest was then seamed and independent respiration was recovered.
The bloode samples were taken from the ventral aorta to measure the serum SOD and MDA contents after 2 hours of the ligature. The heart was sliced into 5 pieces under heart ligature and was stained by N-BT. Using a Multimedia Pathological Color Image Analyzing System (Type MPIAS-500, Beijing), the areas of the normal myocardiums and the myocardial infraction were calculated. The degree of myocardial infarction was observed. And the experimental results were statistically analyzed (t-Test).

Series [4] concerns normally anaesthetized dogs. Description: cardiac hemodynamics and cardiac oxygen consumption of dogs. It is filed as in vivo. On the procedure: The experimental medicaments were prepared to the same volume (50 ml) with physiological saline, and injected through femoral vein at a speed of 5 ml/min by the computer minim syringe pump (Type AJ-5803, Shanghai).
The animals were anaesthetized intravenously with pentobarbital sodium (30 mg/kg, i.v), and connected with an electric respirator after tracheal intubation. The chests were opened in the position of the 4th left rib to expose the heart. The pericardium was cut to make a pericardial bed. The laevorotatory branch of coronary artery and the root of aorta were separated and a probe of an electromagnetic flowmeter (Type MF-1100) was placed in to measure the blood flow of coronary artery and cardiac output. The tip of left ventricle was intubated and connected with a pressure energy transducer (MPU-0.5A). The internal pressure of left ventricle was measured with a carrier amplifier (AG-601G), and the maximal ascending rate (dp/dtmax) of the internal pressure of left ventricle was measured with a differentiator (ED-601G). The animals were intubated through the external jugular vein into the coronary vein sinus and also intubated through the carotid. The blood oxygen contents of coronary vein sinus and artery were measured using a blood oxygen instrument (Type AVL912, Swiss) to calculate the myocardial oxygen consumption. Then the femoral artery was intubated to measure the blood pressure of artery. And then with the Standard Limb Lead II of electrocardiogram, the heart rate and the related parameters of electrocardiogram were calculated. With the formula, other indexes of hemodynamics were calculated: cardiac stroke output, oxygen consumption index, cardiac index, resistance of coronary artery, total peripheral resistance and oxygen utility, etc. All the above-mentioned indexes were recorded by a multirunning physiological recorder (Type RM-6000, Japan Photoelectricity) synchronously.
After the operation and the observed indexes being stable, the values before medicament were recorded, and the experimental medicaments were then administered. The values were recorded at 5 minutes of the middle of the process of administration, immediately after, and 1, 3, 5, 10, 15, 30, and 60 minutes after administered medicaments. All the measured indexes and derived parameters were processed statistically. The self-comparisons of the actual measurement values within different time periods after and before administered medicaments were made. Using the t-Test, the changed rate percentages were compared to show the significance between the groups.

Series [5] has as its system acute lung injury caused by the lipopolysaccharide. Description: LPS acute lung injury (ALI) model. In kind it is in vivo, Wistar rats. On the procedure: And each of the modeling group, the LPS+DEX Group and LPS+SQ Group was again divided into 3 time phasing groups, that is, a one-hour group, a two-hour group, and a four-hour group. There are 10 groups in total, 6 […] per group in this experiment.
The 18 rats of the LPS+DEX Group were injected abdominally with 50 mg/kg Dexamethasone 2 hours before modeling. The 18 rats of the LPS+NS Group were injected with physiological saline 2 hours before modeling. Except for the normal Control group, all the three above-mentioned groups were injected with LPS (4 mg/kg) in the caudal vein.
After all the animals being anaesthetized with chloral hydrate through abdominal injection at the determined time phasing point, 2 ml blood was sampled from the carotid, and centrifuged at 800 gr/min for 8 minutes. The supernatant was extracted and placed at −20° C. in a refrigerator for future usage. The chest was opened and the lower lobes of the right lung were sampled They were placed in the EP tubes treated with DEPC solution and immediately put at −70° C. in a refrigerator for the total RNA extraction. The upper lobes of the right lung were sampled and dipped in 10% formaldehyde solution to fix. The left lungs were taken for the ratio of wet/dry weight measurement.
4. At the corresponding timing point, the animal lung tissues were taken and observed with human eyes and under the microscope using HE Staining Method. The ratio of tissues wetdry weight was also measured.

[6] abbreviates: Dose/kg 0.5 mg, femoral vein, 180 minutes, N-BT staining.
The mark [7] stands for this setting: serum after 2 hours of the ligature.
[8] abbreviates: Herbesser Injection, femoral vein.
[9] abbreviates: LPS 4 mg/kg, DEX 50 mg/kg 2 hours before, SQ 2 ml daily 1 week before.

Structures can show the parent of a compound that is named as a salt. Marks after values point to notes of the source that are not given here.

For the compound `CN(Cc1cnc2nc(N)nc(N)c2n1)c1ccc(C(=O)N[C@@H](CCC(=O)O)C(=O)O)cc1` [MTX, Methotrexate], in series [1], the “Number of Dead Animal after administered MTX, 4th day” value came to 1; the “Number of Dead Animal after administered MTX, 5th day” value is listed as 7; the “Number of Dead Animal after administered MTX, 6th day” value is reported as 3; the “Number of Dead Animal after administered MTX, 7th day” value amounted to 6. Also, in series [1], the “Survival Number after 10 days” value came out at 4 and the “Survival Rate % after 10 days” value is listed as 19.04%.

For the compound `COc1ccc([C@@H]2Sc3ccccc3N(CCN(C)C)C(=O)[C@@H]2OC(C)=O)cc1` [Herbesser, Diltiazem Hydrochloride], in series [2] (setting [6]), the “Infarcted Area” value is listed as 281.30 ± 159.9*** mm^2, the “Infarcted Area/heart” value worked out at 2.27 ± 0.73 and the “Infarcted Area/ventricle” value worked out at 7.44 ± 2.61. The “increasing activity of serum CK and LDH caused by myocardial ischemia and infarction (in words)” value in series [2] (Herbesser, composition 2.4 g crude drug/kg, P<0.05 vs physiological saline) is on record as “significantly inhibited”. For the same compound, the “blood flow of coronary artery (in words)” value in series [2] (after ligature of the coronary artery) is listed as “evident effect of increasing blood flow of coronary artery”. For the same compound, in series [2] (dog, in vivo), the “ET activity in plasma caused by myocardial ischemia and infarction (in words)” value is on record as “obvious inhibiting effect on the ET activity”. In series [2] (no statistical meaning), the “blood oxygen content of vein sinus (in words)” value is recorded as “effect trend of increasing blood oxygen content of vein sinus”. Further, in series [3] (left femoral vein), the “Infarcted Area/heart” value was 16.6 ± 2.6, the “Infarcted Area/ventricle %” value came to 21.6 ± 4.3 %, the “The area of myocardial infraction” value was 61.72 ± 9.68** mm^2 and the “Weight of Infarcted Area” value turned out to be 0.154 ± 0.027 g. For the same compound, in series [3] (setting [7]), the “MDA content of blood serum” value was found to be 2.35 ± 0.07 µmol/L and the “SOD content of blood serum” value amounted to 660.9 ± 159.7 ng/mL. Further, the “blood flow and resistance of coronary artery (in words)” value in series [4] (Herbesser Injection) was “markedly increased the blood flow and the resistance of coronary artery”. Further, in series [4] (setting [8]), the “arterial blood pressure (in words)” value is recorded as “obvious effect of reducing blood pressure” and the “heart rate (in words)” value is “slowing down heart rate”.

As for `C[C@@H]1C[C@H]2[C@@H]3CCC4=CC(=O)C=C[C@]4(C)[C@@]3(F)[C@@H](O)C[C@]2(C)[C@@]1(O)C(=O)CO` [LPS + DEX, Dexamethasone], the “Pathological Classification of lung injury: cases Light, 1-hour” value in series [5] (LPS 4 mg/kg caudal vein, DEX 50 mg/kg abdominally 2 hours before, SQ 2 ml abdominally daily 1 week before) was 6. Also, in series [5] (setting [9]), the “Lung W/D Ratio, 1 h” value is reported as 4.82 ± 0.23*Δ; the “Lung W/D Ratio, 2 h” value is 4.59 ± 0.19*Δ#; the “Lung W/D Ratio, 4 h” value is given as 4.57 ± 0.10*Δ#; the “Pathological Classification of lung injury: cases Light, 2-hour” value came to 4. In series [5] (setting [9]), the “Pathological Classification of lung injury: cases Light, 4-hour” value worked out at 6; the “Pathological Classification of lung injury: cases Middle, 1-hour” value is 0; the “Pathological Classification of lung injury: cases Middle, 2-hour” value amounted to 2; the “Pathological Classification of lung injury: cases Middle, 4-hour” value amounted to 0. Moreover, in series [5] (setting [9]), the “Pathological Classification of lung injury: cases Severe, 1-hour” value was found to be 0; the “Pathological Classification of lung injury: cases Severe, 2-hour” value is given as 0; the “Pathological Classification of lung injury: cases Severe, 4-hour” value was found to be 0. Besides, in series [5] (compared with LPS+NS Group), the “symptoms (tachypnea, lips cyanosis, mental wilting) after LPS (in words)” value is “relatively mild”. In addition, the “general observation of lung tissues (in words)” value in series [5] (same time phasing points, in comparison to Group LPS+NS) is listed as “mitigated to different extent”.

`CCCCC[C@H](O)/C=C/[C@@H]1[C@@H](CC(=O)CCCCC(=O)O)[C@@H](O)C[C@H]1O` [Composition 6-Keto-PGF1, 6-keto-prostaglandin F1α]: the “myocardial oxygen consumption (in words)” value in series [2] (15 minutes after given) is “obviously reduced”. For the same compound, in series [4] (dog, in vivo), the “cardiac stroke output (in words)” value is “markedly increased the cardiac stroke output” and the “resistance of outer periphery (in words)” value is “reduced the resistance of outer periphery”.

These data come from patent US20080206374A1 (priority 2003, published 2008).
